Experimental data as given in US20220137057A1 (priority 2019, published 2022).
Like-named read-outs stand apart in the source and are kept apart here.

Assays:
[1] = test system: Pyricularia oryzae, Strain J1; assay type: cell-based; conditions: for Fractional contribution of metabolite RI 3507: control 0.09 to 0.12; for Position of enzymatic inhibition in the metabolic sequence (breaking point): from increase/decrease of label incorporation, FIG. 3; for Non-polar metabolites changed (number of metabolite MIDs) / Polar metabolites changed (number of metabolite MIDs): treatment vs control; for Non-polar metabolites changed (number of metabolite MIDs): threshold 2% M0 difference, non-polar phase; for Polar metabolites changed (number of metabolite MIDs): threshold 5% M0 difference, polar phase
ergosterol biosynthesis = assay: Metabolomics (metabolite profiling) of fenpropidin treatment, FIG. 5; assay type: cell-based; conditions: samples 0.5, 2, 6 and 48 hours after treatment
Lemna paucicostata = conditions: in vivo

| SMILES | Mode-of-action pinpointed by MIAMI [1] | Fractional contribution of metabolite RI 3507 ([1]; 2 hours after treatment) | Fractional contribution of metabolite RI 3507 ([1]; 6 hours after treatment) | Position of enzymatic inhibition in the metabolic sequence (breaking point) [1] | Non-polar metabolites changed (number of metabolite MIDs) [1] | Polar metabolites changed (number of metabolite MIDs) [1] | Change in ergosterol (metabolomics, fold-change to control) (ergosterol biosynthesis) | Change in fractional contribution of differentially labeled metabolites (Lemna paucicostata) | Mode-of-action indicated by MIAMI (Lemna paucicostata) |
| --- | --- | --- | --- | --- | --- | --- | --- | --- | --- |
| CC(Cc1ccc(C(C)(C)C)cc1)CN1CCCCC1 (stereo not drawn) [fung 1, Fenpropidin] | a hand full of potential targets in steroid biosynthesis | 0.16 | 0.18 | between metabolites RI 3507 and RI 3309 | 34 | 19 | reductions in ergosterol, however not significantly after 6 hours | – | – |
| CC(C)C1(C)N=C(c2ncccc2C(=O)O)NC1=O (stereo not drawn) [herbicide four, Imazapyr] | – | – | – | – | – | – | – | increase in fractional contribution, except for valine | mode-of-action in the valine biosynthesis pathway |
| Fc1ccc([C@]2(Cn3cncn3)O[C@H]2c2ccccc2Cl)cc1 (racemic) [fung 2, Epoxiconazole] | a hand full of potential targets in steroid biosynthesis | 0.17 | 0.37 | between RI 3569 and RI 3309 | 34 | 26 | – | – | – |
